Data from PMC9856044 (Biomolecules, 2023).

Biological target: poly A–poly U (AU-RNA)
Experiment: Fluorimetric titration with AU-RNA
Assay type: binding
Protocol: Materials. Polynucleotides were purchased as noted: poly A–poly U, calf thymus ctDNA, poly(dAdT)2 and poly(dGdC)2 (Sigma-Aldrich, St. Louis, MI, USA). Polynucleotides were dissolved in Na-cacodylate buffer, I = 0.05 mol dm^−3, pH = 7.0. The calf thymus ctDNA was additionally sonicated and filtered through a […]. Polynucleotide concentration was determined spectroscopically as the concentration of phosphates. Spectrophotometric titrations were performed at pH = 7.0 (I = 0.05 mol dm^−3, sodium cacodylate buffer) by adding aliquots of polynucleotide solution into the solution of the studied compound for fluorimetric experiments and CD experiments were done by adding aliquots of the compound stock solution into the solution of a polynucleotide. In fluorimetric experiments, an excitation wavelength of λexc = 425, 431, 423, 427, 406 and 407 nm, respectively, was used to avoid the inner filter effect caused due to increasing absorbance of the polynucleotide. Emission was collected in the range λem = 400–700 nm. Values for Ka obtained by processing titration data using the Scatchard equation [27], all have satisfactory correlation coefficients (≥0.98). Furthermore, linear changes were evident with increasing DNA or RNA concentration in most titrations. The exceptions to this were titrations of cyanine 3 with GC-DNA and titrations of dye 5 with ds-DNA and ds-RNA where sufficient data points in the non-linear part of the curve allowed estimation of binding affinity (Ka values were of the order 10^5 mol^−1 dm^−3; Figures S16, S22 and S23 in SI). Titration data were collected at a high excess of polynucleotide binding sites (r[1–6]/[nucleotide phosphate] < 0.1; see Figures S9–S26 in SI) where each molecule can bind to a separate binding site. Binding affinities of dye-DNA/RNA complexes were calculated by non-linear fitting using the Scatchard equation [27, 33]. The fluorescence changes of dye 5 in the titration with AT-DNA were too small to obtain an accurate binding constant (Figure S21 in SI).

Q: Which results are given for C[n+]1c(/C=C2\Sc3ccccc3N2CCCS)[se]c2ccccc21 [Compound 5, 2-((3-(3-mercaptopropyl)benzo[d]thiazol-2(3H)-ylidene)methyl)-3-methylbenzo[d][1,3]selenazol-3-ium methosulphate]?
A: log Ka (AU-RNA): 5; Ka (order of magnitude) (ds-RNA (AU-RNA), sodium cacodylate buffer, pH 7.0, I = 0.05 mol dm^−3, Scatchard equation): ~10^5 mol^−1 dm^−3; K (fit parameter of titration curve) (poly A – poly U, pH=7.0, sodium cacodylate buffer, I = 0.05 mol dm-3): 133756.34591 ±30379564.80418
